{"source": "paper PMC5060005", "about": "(Bioorganic & medicinal chemistry, 2016)", "key": {"SERT": {"target": "SERT (Homo sapiens, UniProt P31645)", "sequence (P31645 whole entry, species assumed)": "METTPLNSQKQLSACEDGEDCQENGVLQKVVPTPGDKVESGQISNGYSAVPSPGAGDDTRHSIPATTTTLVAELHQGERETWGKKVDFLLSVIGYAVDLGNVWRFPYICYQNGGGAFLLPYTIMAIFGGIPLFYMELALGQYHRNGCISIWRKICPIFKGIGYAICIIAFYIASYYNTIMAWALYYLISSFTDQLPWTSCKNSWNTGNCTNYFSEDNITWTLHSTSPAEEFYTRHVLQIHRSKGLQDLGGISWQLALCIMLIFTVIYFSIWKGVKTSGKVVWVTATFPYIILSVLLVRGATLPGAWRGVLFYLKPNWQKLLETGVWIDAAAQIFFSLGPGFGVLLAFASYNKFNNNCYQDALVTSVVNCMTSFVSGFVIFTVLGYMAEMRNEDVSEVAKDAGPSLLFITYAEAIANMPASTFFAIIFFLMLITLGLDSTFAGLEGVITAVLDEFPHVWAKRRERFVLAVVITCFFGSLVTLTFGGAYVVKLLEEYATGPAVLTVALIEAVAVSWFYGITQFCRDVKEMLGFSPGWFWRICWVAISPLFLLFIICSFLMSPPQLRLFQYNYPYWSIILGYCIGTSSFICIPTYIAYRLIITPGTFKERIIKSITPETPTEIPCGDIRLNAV", "conditions": "MTA = Missed 50% of threshold inhibition; Ki without SEM within 20% of mean"}, "5-HT7 receptor": {"target": "5-HT7 receptor (Homo sapiens, UniProt P34969)", "sequence (P34969 whole entry)": "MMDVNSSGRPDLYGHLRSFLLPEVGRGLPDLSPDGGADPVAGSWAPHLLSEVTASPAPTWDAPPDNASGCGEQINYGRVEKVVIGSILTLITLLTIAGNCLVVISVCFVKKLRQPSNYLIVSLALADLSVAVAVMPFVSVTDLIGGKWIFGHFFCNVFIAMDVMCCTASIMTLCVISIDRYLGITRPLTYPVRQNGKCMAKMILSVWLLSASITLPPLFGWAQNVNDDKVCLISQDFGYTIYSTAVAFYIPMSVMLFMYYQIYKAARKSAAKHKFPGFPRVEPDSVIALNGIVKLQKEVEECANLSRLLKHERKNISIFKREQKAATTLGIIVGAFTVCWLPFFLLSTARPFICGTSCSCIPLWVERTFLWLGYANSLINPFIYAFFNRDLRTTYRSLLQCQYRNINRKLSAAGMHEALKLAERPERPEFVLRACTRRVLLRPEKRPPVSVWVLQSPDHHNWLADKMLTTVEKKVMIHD"}, "D3 receptor": {"target": "D3 receptor (Homo sapiens, UniProt P35462)", "sequence (P35462 whole entry)": "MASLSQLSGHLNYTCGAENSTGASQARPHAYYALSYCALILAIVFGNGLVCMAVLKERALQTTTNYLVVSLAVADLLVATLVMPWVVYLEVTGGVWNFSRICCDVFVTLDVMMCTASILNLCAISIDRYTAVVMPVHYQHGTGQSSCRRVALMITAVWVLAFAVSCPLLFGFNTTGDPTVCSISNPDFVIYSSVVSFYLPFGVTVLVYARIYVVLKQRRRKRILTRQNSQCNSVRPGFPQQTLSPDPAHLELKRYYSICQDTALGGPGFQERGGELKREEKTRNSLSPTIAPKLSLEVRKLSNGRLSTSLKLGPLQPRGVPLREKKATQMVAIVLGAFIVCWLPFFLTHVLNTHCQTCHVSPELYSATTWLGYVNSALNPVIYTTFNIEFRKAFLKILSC", "conditions": "MTA = Missed 50% of threshold inhibition; Ki without SEM within 20% of mean"}, "histamine H1 receptor": {"target": "histamine H1 receptor (Homo sapiens, UniProt P35367)", "sequence (P35367 whole entry, species assumed)": "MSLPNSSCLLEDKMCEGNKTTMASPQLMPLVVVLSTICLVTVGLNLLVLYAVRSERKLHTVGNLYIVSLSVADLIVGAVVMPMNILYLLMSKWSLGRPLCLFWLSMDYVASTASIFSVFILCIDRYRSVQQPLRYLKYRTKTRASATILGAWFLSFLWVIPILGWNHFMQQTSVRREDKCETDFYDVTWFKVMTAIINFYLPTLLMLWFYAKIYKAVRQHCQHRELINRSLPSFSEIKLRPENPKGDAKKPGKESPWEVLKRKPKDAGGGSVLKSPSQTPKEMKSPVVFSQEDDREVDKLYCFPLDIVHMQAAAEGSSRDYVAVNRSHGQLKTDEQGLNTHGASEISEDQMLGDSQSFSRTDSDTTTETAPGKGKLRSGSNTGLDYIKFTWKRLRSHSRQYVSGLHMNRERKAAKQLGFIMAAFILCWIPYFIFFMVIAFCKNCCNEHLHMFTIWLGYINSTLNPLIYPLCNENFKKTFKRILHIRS", "conditions": "MTA = Missed 50% of threshold inhibition; Ki without SEM within 20% of mean"}, "5-HT1A receptor": {"target": "5-HT1A receptor (Homo sapiens, UniProt P08908)", "sequence (P08908 whole entry)": "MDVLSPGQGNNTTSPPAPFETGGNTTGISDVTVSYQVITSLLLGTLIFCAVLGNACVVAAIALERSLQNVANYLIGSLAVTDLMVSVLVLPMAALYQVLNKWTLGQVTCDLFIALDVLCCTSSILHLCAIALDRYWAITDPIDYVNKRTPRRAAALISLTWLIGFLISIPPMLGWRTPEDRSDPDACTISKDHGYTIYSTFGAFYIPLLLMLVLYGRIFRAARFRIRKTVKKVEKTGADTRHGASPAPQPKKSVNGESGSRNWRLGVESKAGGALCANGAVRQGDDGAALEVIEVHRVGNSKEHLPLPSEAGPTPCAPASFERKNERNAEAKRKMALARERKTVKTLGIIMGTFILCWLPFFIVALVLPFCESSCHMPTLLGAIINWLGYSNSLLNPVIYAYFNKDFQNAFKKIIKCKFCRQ"}, "5-HT2A receptor": {"target": "5-HT2A receptor (Homo sapiens, UniProt P28223)", "sequence (P28223 whole entry)": "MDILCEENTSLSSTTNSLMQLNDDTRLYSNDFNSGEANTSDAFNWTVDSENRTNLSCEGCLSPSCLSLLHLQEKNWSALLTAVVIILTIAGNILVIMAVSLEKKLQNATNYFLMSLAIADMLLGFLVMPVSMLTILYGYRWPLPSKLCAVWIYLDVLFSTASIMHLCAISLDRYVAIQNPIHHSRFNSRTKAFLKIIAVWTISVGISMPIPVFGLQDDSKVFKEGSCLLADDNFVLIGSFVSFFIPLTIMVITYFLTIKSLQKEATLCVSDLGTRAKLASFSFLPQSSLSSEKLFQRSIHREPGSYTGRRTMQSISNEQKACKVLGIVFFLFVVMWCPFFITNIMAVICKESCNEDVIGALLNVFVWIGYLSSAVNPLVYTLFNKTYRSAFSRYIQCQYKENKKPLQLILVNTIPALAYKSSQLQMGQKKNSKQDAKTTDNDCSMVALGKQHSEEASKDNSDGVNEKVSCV"}, "D2 receptor": {"target": "D2 receptor (Homo sapiens, UniProt P14416)", "sequence (P14416 whole entry)": "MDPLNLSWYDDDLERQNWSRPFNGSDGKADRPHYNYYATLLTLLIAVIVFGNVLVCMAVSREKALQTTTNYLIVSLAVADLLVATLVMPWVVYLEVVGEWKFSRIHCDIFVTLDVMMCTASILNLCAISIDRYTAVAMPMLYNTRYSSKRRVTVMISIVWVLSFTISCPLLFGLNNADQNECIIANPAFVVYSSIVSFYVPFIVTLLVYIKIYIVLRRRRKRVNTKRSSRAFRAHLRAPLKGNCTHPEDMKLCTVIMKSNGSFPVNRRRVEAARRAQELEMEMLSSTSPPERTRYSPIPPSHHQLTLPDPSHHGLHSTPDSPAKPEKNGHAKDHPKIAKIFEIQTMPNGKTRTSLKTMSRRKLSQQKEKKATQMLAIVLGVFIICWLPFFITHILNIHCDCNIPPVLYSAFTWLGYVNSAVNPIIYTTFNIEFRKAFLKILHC", "conditions": "MTA = Missed 50% of threshold inhibition; Ki without SEM within 20% of mean"}, "5-HT2B receptor": {"target": "5-HT2B receptor (Homo sapiens, UniProt P41595)", "sequence (P41595 whole entry)": "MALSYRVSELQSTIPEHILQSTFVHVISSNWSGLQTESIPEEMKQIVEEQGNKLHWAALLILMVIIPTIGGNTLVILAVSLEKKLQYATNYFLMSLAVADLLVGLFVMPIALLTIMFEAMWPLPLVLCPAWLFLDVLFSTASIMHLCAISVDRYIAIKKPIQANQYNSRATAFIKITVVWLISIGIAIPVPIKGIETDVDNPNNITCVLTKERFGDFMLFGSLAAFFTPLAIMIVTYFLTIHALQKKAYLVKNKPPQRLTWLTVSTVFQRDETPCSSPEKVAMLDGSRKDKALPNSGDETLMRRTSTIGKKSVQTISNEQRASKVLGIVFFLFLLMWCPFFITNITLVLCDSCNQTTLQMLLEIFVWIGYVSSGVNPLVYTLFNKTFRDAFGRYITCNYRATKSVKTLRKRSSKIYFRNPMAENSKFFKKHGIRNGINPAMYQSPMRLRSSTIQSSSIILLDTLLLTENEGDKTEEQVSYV", "conditions": "MTA = Missed 50% of threshold inhibition; Ki without SEM within 20% of mean"}, "5-HT2C receptor": {"target": "5-HT2C receptor (Homo sapiens, UniProt P28335)", "sequence (P28335 33-458)": "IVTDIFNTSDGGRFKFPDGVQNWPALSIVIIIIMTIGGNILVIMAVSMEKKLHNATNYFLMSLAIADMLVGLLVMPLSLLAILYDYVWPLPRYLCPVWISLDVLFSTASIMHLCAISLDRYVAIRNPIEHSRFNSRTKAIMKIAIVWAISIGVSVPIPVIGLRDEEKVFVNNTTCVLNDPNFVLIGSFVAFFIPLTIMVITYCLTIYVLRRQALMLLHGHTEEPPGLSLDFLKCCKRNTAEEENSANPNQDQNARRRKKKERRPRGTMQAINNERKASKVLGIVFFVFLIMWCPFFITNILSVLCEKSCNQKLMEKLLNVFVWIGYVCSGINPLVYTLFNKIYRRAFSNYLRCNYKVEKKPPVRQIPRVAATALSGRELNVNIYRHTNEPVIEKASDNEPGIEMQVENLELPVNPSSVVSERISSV", "conditions": "MTA = Missed 50% of threshold inhibition; Ki without SEM within 20% of mean"}, "[1]": {"conditions": "MTA = Missed 50% of threshold inhibition, Ki without SEM within 20% of mean"}}, "note": "Structures can show the parent of a compound that is named as a salt. Where two headings read alike, the source gives them in different places."}
{"compound": "Cl.Fc1ccc(SCCCN2CCc3ccccc3C2)cc1", "note": "[Compound 8, 2-(3-((4-Fluorophenyl)thio)propyl)-1,2,3,4-tetrahydroisoquinoline hydrochloride]", "values": [{"measurement": "Ki SERT", "setting": "SERT", "value": "MTA"}]}
{"compound": "O=C1c2ccccc2C(=O)N1CCCCN1Cc2ccccc2C1", "note": "[Compound 3, 2-(4-(Isoindolin-2-yl)butyl)isoindoline-1,3-dione]", "values": [{"measurement": "Ki 5-HT7", "setting": "5-HT7 receptor; [1]", "value": "MTA"}, {"measurement": "Ki D3", "setting": "D3 receptor", "value": "MTA"}, {"measurement": "Ki SERT", "setting": "SERT", "value": "MTA"}, {"measurement": "Ki H1", "setting": "histamine H1 receptor", "value": "MTA"}, {"measurement": "Ki 5-HT1A", "setting": "5-HT1A receptor; [1]", "value": "MTA"}, {"measurement": "Ki 5-HT2A", "setting": "5-HT2A receptor; [1]", "value": "MTA"}, {"measurement": "Ki D2", "setting": "D2 receptor", "value": "MTA"}, {"measurement": "Ki 5-HT2B", "setting": "5-HT2B receptor", "value": "MTA"}]}
{"compound": "Cl.Fc1ccc(OCCCN2CCc3ccccc3C2)cc1", "note": "[Compound 7, 2-(3-(4-Fluorophenoxy)propyl)-1,2,3,4-tetrahydroisoquinoline hydrochloride]", "values": [{"measurement": "Ki SERT", "setting": "SERT", "value": "MTA"}, {"measurement": "Ki 5-HT2C", "setting": "5-HT2C receptor", "value": "MTA"}]}
{"compound": "O=C(CCCN1CCc2ccccc2C1)c1ccc(F)cc1", "note": "[Compound 10, 4-(3,4-Dihydroisoquinolin-2(1H)-yl)-1-(4-fluorophenyl)butan-1-one]", "values": [{"measurement": "Ki SERT", "setting": "SERT", "value": "MTA"}, {"measurement": "increase in binding affinity at the 5-HT1AR", "setting": "5-HT1A receptor; relative to compound 9", "value": 3, "unit": "fold"}]}
{"compound": "Cl.[O-][S+](CCCN1CCc2ccccc2C1)c1ccc(F)cc1", "note": "(centres unmarked) [Compound 9, 2-(3-((4-Fluorophenyl)sulfinyl)propyl)-1,2,3,4-tetrahydroisoquinoline hydrochloride]", "values": [{"measurement": "Ki SERT", "setting": "SERT", "value": "MTA"}, {"measurement": "Ki 5-HT2C", "setting": "5-HT2C receptor", "value": "MTA"}]}
{"compound": "O=C(CCCN1CCc2ccccc2C1)c1ccc(O)cc1", "note": "[Compound 15, 4-(3,4-Dihydroisoquinolin-2(1H)-yl)-1-(4-hydroxyphenyl)butan-1-one hydrochloride]", "values": [{"measurement": "Ki 5-HT2C", "setting": "5-HT2C receptor", "value": "MTA"}]}
{"compound": "O=C1c2ccccc2C(=O)N1CCCCN1CCc2ccccc2C1", "note": "[Compound 1, 2-(4-(3,4-Dihydroisoquinolin-2(1H)-yl)butyl)isoindoline-1,3-dione]", "values": [{"measurement": "Ki SERT", "setting": "SERT", "value": "MTA"}, {"measurement": "Ki H1", "setting": "histamine H1 receptor", "value": "MTA"}, {"measurement": "Ki 5-HT2C", "setting": "5-HT2C receptor", "value": "MTA"}, {"measurement": "Ki 5-HT2A", "setting": "5-HT2A receptor", "value": "MTA"}, {"measurement": "Ki D2", "setting": "D2 receptor", "value": "MTA"}, {"measurement": "Ki 5-HT2B", "setting": "5-HT2B receptor", "value": "MTA"}]}
{"compound": "Cl.Fc1ccc2c(c1)CC(CCN1CCc3ccccc3C1)C2", "note": "(centres unmarked) [Compound 5, 2-(2-(5-Fluoro-2,3-dihydro-1H-inden-2-yl)ethyl)-1,2,3,4-tetrahydroisoquinoline hydrochloride]", "values": [{"measurement": "Ki 5-HT2C", "setting": "5-HT2C receptor", "value": "MTA"}]}
{"compound": "c1ccc2c(c1)CCN(CCCCc1c[nH]c3ccccc13)C2", "note": "[Compound 4, 2-(4-(1H-indol-3-yl)butyl)-1,2,3,4-tetrahydroisoquinoline]", "values": [{"measurement": "Ki 5-HT2C", "setting": "5-HT2C receptor", "value": "MTA"}, {"measurement": "Ki 5-HT2B", "setting": "5-HT2B receptor", "value": "MTA"}]}
{"compound": "O=C1c2ccccc2C(=O)N1CCCCN1CCC2CCCCC2C1", "note": "(centres unmarked) [Compound 2, 2-(4-(Octahydroisoquinolin-2(1H)-yl)butyl)isoindoline-1,3-dione]", "values": [{"measurement": "decrease in binding affinity to the 5-HT7R", "setting": "5-HT7 receptor; relative to compound 1", "value": "~40", "unit": "fold"}]}
